biological target: leukotriene B4 receptors (Cavia porcellus, UniProt H0VYV8); experiment: biochemical; type: binding, guinea-pig; settings: Table XIX; guinea-pig spleen membranes, tritium-labelled LTB4; read-out: IC50 Binding (Cheng)
Sequence (H0VYV8 1-348): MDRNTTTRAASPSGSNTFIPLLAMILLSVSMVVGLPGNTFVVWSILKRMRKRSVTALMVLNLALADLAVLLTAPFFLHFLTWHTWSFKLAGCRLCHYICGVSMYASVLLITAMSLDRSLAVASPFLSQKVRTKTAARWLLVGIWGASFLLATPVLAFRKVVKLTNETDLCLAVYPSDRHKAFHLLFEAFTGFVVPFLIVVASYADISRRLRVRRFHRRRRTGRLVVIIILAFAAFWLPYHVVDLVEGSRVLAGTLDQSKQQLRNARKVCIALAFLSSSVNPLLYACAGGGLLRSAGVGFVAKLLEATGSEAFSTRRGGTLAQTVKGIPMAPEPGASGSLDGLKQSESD

| Compound | IC50 [µM] |
| --- | --- |
| CC(C)(CCCCCCSc1ncc(-c2ccccc2)c(-c2ccccc2)n1)C(=O)O [2,2-dimethyl-8-(4,5-diphenyl-2-pyrimidylthio)octanoic acid] | 2.5 |
| CC(C)(CCCCCCOc1cc(-c2ccccc2)cc(-c2ccccc2)n1)C(=O)O [2,2-dimethyl-8-[(4,6-diphenyl-2-pyridyl)oxy]octanoic acid] | 0.022 |
| CCC(C)(CCCCOc1cc(-c2ccccc2)c2ccccc2n1)C(=O)O (stereo not shown) [2-ethyl-2-methyl-6-[(4-phenyl-2-quinolyl)oxy]hexanoic acid] | 0.11 |
| CCC(CCCCOc1cc(-c2ccc(Cl)cc2)c2ccccc2n1)C(=O)O (stereo not shown) [2-ethyl-6-{[4-(4-chlorophenyl)-2-quinolyl]oxy}hexanoic acid] | 0.2 |
| CC(CCCCOc1cc(-c2ccccc2)c2ccccc2n1)C(=O)O (stereo not shown) [2-methyl-6-[(4-phenyl-2-quinolyl)oxy]hexanoic acid] | 0.55 |
| CC(CCCCOc1cc(-c2ccc(Cl)cc2)c2ccccc2n1)C(=O)O (stereo not shown) [2-methyl-6-{[4-(4-chlorophenyl)-2-quinolyl]oxy}hexanoic acid] | 0.03 |
| COc1ccc(-c2cc(OCCCCC(C)C(=O)O)nc3ccccc23)cc1 (stereo not shown) [2-methyl-6-{[4-(4-methoxyphenyl)-2-quinolyl]oxy}hexanoic acid] | 0.016 |
| O=C(CCCOc1cc(-c2ccccc2)cc(-c2ccccc2)n1)Nc1ccccc1 [4-[(4,6-diphenyl-2-pyridyl)oxy]butanilide] | > 1 |
| O=C(O)CCCOc1cc(-c2ccccc2)cc(-c2ccccc2)n1 [4-[(4,6-diphenyl-2-pyridyl)oxy]butanoic acid] | 0.3 |
| CC(C)(CCCCOc1cc(-c2ccccc2)c2ccccc2n1)c1nnn[nH]1 [5-{1,1-dimethyl-5-[(4-phenyl-2-quinolyl)oxy]pentyl}-[1H]-tetrazole] | 0.4 |
| CC(C)(CCCCOc1cc(-c2ccc(Cl)cc2)c2ccccc2n1)c1nnn[nH]1 [5-{1,1-dimethyl-5-{[4-(4-chlorophenyl)-2-quinolyl]oxy}pentyl}-[1H]-tetrazole] | 0.03 |
| c1ccc(-c2cc(OCCCCCc3nnn[nH]3)nc3ccccc23)cc1 [5-{5-[(4-phenyl-2-quinolyl)oxy]pentyl}-[1H]-tetrazole] | 0.5 |
| Clc1ccc(-c2cc(OCCCCCc3nnn[nH]3)nc3ccccc23)cc1 [5-{5-{[4-(4-chlorophenyl)-2-quinolyl]oxy}pentyl}-[1H]-tetrazole] | 0.025 |
| c1ccc(-c2cc(-c3ccc4c(c3)OCO4)cc(OCCCCCc3nnn[nH]3)n2)cc1 [5-{5-{[6-phenyl-4-(3,4-methylenedioxyphenyl)-2-pyridyl]oxy}pentyl}-1H-tetrazole] | 0.002 |
| O=C(O)CCCCCOc1cc(-c2ccccc2)cc(-c2ccccc2)c1 [6-(3,5-diphenyl-phenoxy)hexanoic acid] | 0.008 |
| O=C(O)CCCCCSc1ncc(-c2ccccc2)c(-c2ccccc2)n1 [6-(4,5-diphenyl-2-pyrimidylthio)hexanoic acid] | 8 |
| COc1ccc(-c2cnc(OCCCCCC(=O)O)nc2-c2ccc(OC)cc2)cc1 [6-[4,5-bis-(4-methoxyphenyl)-2-pyrimidyloxy]hexanoic acid] | 8 |
| O=C(O)CCCCCOc1nc(-c2ccccc2)cc(-c2ccccc2)n1 [6-[(4,6-diphenyl-2-pyrimidyl)oxy]hexanoic acid] | 0.15 |
| O=C(O)CCCCCOc1cc(-c2ccccc2)ccn1 [6-[(4-phenyl-2-pyridyl)oxy]hexanoic acid] | 0.9 |
| O=C(O)CCCCCOc1cc(-c2ccccc2)c2ccccc2n1 [6-[(4-phenyl-2-quinolyl)oxy]hexanoic acid] | 0.7 |
| CC(C)(CCCCOc1ccc(-c2ccccc2)c(-c2ccccc2)n1)C(=O)O [6-[(5,6-diphenyl-2-pyridyl)oxy]-2,2-dimethylhexanoic acid] | 10 |
| Cc1cc(-c2ccccc2)cc(OCCCCC(C)(C)C(=O)O)n1 [6-[(6-methyl-4-phenyl-2-pyridyl)oxy]-2,2-dimethylhexanoic acid] | 0.01 |
| Cc1cc(-c2ccccc2)cc(OCCCCCC(=O)O)n1 [6-[(6-methyl-4-phenyl-2-pyridyl)oxy]hexanoic acid] | 0.2 |

| Compound | IC50 [µM] |
| --- | --- |
| Cc1ccc2nc(OCCCCC(C)(C)C(=O)O)cc(-c3ccccc3)c2c1 [6-[(6-methyl-4-phenyl-2-quinolyl)oxy]-2,2-dimethylhexanoic acid] | 5 |
| CC(C)(CCCCOc1cccc(-c2ccccc2)n1)C(=O)O [6-[(6-phenyl-2-pyridyl)oxy]-2,2-dimethylhexanoic acid] | 2 |
| O=C(O)CCCCCOc1cc(-c2ccc(Cl)cc2)cc(-c2ccc(Cl)cc2)n1 [6-{[4,6-di(4-chlorophenyl)-2-pyridyl]oxy}hexanoic acid] | 1.2 |
| COc1ccc(-c2cc(OCCCCCC(=O)O)nc(-c3ccc(OC)cc3)c2)cc1 [6-{[4,6-di(4-methoxyphenyl)-2-pyridyl]oxy}hexanoic acid] | 3 |
| O=C(O)CCCCCOc1cc(-c2ccccc2Cl)cc(-c2ccccc2)n1 [6-{[4-(2-chlorophenyl)-6-phenyl-2-pyridyl]oxy}hexanoic acid] | 0.2 |
| O=C(O)CCCCCOc1cc(-c2cc(Cl)cc(Cl)c2)cc(-c2ccccc2)n1 [6-{[4-(3,5-dichlorophenyl)-6-phenyl-2-pyridyl]oxy}hexanoic acid] | 0.5 |
| Nc1cccc(-c2cc(OCCCCCC(=O)O)nc(-c3ccccc3)c2)c1 [6-{[4-(3-aminophenyl)-6-phenyl-2-pyridyl]oxy}hexanoic acid] | 0.012 |
| O=C(O)CCCCCOc1cc(-c2cccc(Cl)c2)cc(-c2ccccc2)n1 [6-{[4-(3-chlorophenyl)-6-phenyl-2-pyridyl]oxy}hexanoic acid] | 0.004 |
| Cc1cccc(-c2cc(OCCCCCC(=O)O)nc(-c3ccccc3)c2)c1 [6-{[4-(3-methylphenyl)-6-phenyl-2-pyridyl]oxy}hexanoic acid] | 0.015 |
| O=C(O)CCCCCOc1cc(-c2ccc(NC(=O)c3ccccc3)cc2)cc(-c2ccccc2)n1 [6-{[4-(4-benzamidophenyl)-6-phenyl-2-pyridyl]oxy}hexanoic acid] | 4 |
| CC(C)(CCCCOc1cc(-c2ccc(Cl)cc2)ccn1)C(=O)O [6-{[4-(4-chlorophenyl)-2-pyridyl]oxy}-2,2-dimethylhexanoic acid] | 0.02 |
| O=C(O)CCCCCOc1cc(-c2ccc(Cl)cc2)c2ccccc2n1 [6-{[4-(4-chlorophenyl)-2-quinolyl]oxy}hexanoic acid] | 0.03 |
| COc1ccc(-c2cc(-c3ccc(Cl)cc3)cc(OCCCCCC(=O)O)n2)cc1 [6-{[4-(4-chlorophenyl)-6-(4-methoxyphenyl)-2-pyridyl]oxy}hexanoic acid] | 1.7 |
| CNc1ccc(-c2cc(OCCCCC(C)(C)C(=O)O)nc(-c3ccccc3)c2)cc1 [6-{[4-(4-methylaminophenyl)-6-phenyl-2-pyridyl]oxy}-2,2-dimethylhexanoic acid] | 0.008 |
| O=C(O)CCCCCOc1cc(-c2ccc([N+](=O)[O-])cc2)cc(-c2ccccc2)n1 [6-{[4-(4-nitrophenyl)-6-phenyl-2-pyridyl]oxy}hexanoic acid] | 0.05 |
| O=C(O)CCCCCOc1cc(-c2ccc(NC(=O)C(F)(F)F)cc2)cc(-c2ccccc2)n1 [6-{[4-(4-trifluoroacetamidophenyl)-6-phenyl-2-pyridyl]oxy}hexanoic acid] | 0.15 |
| CC(CCCCOc1cc(-c2ccc3c(c2)OCO3)cc(-c2ccccc2Cl)n1)C(=O)O (stereo not shown) [6-{[6-(2-chlorophenyl)-4-(3,4-methylenedioxyphenyl)-2-pyridyl]oxy}-2-methylhexanoic acid] | 0.002 |
| O=C(O)CCCCCOc1cc(-c2ccccc2)cc(-c2ccc(Cl)cc2)n1 [6-{[6-(4-chlorophenyl)-4-phenyl-2-pyridyl]oxy}hexanoic acid] | 1 |
| COc1ccc(-c2cc(-c3ccccc3)cc(OCCCCCC(=O)O)n2)cc1 [6-{[6-(4-methoxyphenyl)-4-phenyl-2-pyridyl]oxy}hexanoic acid] | 1 |
| Cc1ccc(-c2cc(-c3ccccc3)cc(OCCCCCC(=O)O)n2)cc1 [6-{[6-(4-methylphenyl)-4-phenyl-2-pyridyl]oxy}hexanoic acid] | 0.3 |
| O=C(O)CCCCC=Cc1cccc(Cc2ccccc2)c1 [7-(3-benzyl-phenyl)6-heptenoic acid, 7-(3-benzyl-phenyl)-6-heptenoic acid] | 10 |
| O=C(O)CCCCCCc1cccc(Cc2ccccc2)c1 [7-(3-benzylphenyl)heptanoic acid, 7-(3-benzyl-phenyl)heptanoic acid] | 7 |

same assay, conditions: read-out: Binding (Cheng) % Inhibition at 10 μM

| Compound | inhibition at 10 µM [%] |
| --- | --- |
| O=C(O)CCCCCOc1ncc(-c2ccccc2)c(-c2ccccc2)n1 [6-(4,5-diphenyl-2-pyrimidyloxy)hexanoic acid] | 35 |
| O=C(O)CCCCCOc1ncc(-c2ccc(Cl)cc2)c(-c2ccc(Cl)cc2)n1 [6-[4,5-bis-(4-chlorophenyl)-2-pyrimidyloxy]hexanoic acid] | 48 |
| O=C(O)CCCCCOc1ccc(-c2ccccc2)c(-c2ccccc2)n1 [6-[(5,6-diphenyl-2-pyridyl)oxy]hexanoic acid] | 15 |
| COc1ccc2nc(OCCCCCC(=O)O)cc(-c3ccccc3)c2c1 [6-[(6-methoxy-4-phenyl-2-quinolyl)oxy]hexanoic acid] | 30 |
| COc1ccccc1-c1cc(OCCCCC(C)(C)C(=O)O)nc2ccccc12 [6-{[4-(2-methoxyphenyl)-2-quinolyl]oxy}-2,2-dimethylhexanoic acid] | 36 |
| COc1ccc(-c2ccc(OCCCCCC(=O)O)nc2-c2ccc(OC)cc2)cc1 [6-{[5,6-bis-(4-methoxyphenyl)-2-pyridyl]oxy}hexanoic acid] | 37 |
| COc1ccc(-c2cc(OCCCCCC(=O)O)nc(-c3ccccc3)c2)cc1OC [6-{[6-phenyl-4-(3,4-dimethoxyphenyl)-2-pyridyl]oxy]hexanoic acid] | 21 |
| COc1cc(OC)cc(-c2cc(OCCCCCC(=O)O)nc(-c3ccccc3)c2)c1 [6-{[6-phenyl-4-(3,5-dimethoxyphenyl)-2-pyridyl]oxy}hexanoic acid] | 50 |
| O=C(O)CCCCCOc1cc(-c2ccc(C(=O)O)cc2)cc(-c2ccccc2)n1 [6-{[6-phenyl-4-(4-carboxyphenyl)-2-pyridyl]oxy}hexanoic acid] | 32 |
| O=C(O)CCCCCCOc1ncc(-c2ccccc2)c(-c2ccccc2)n1 [7-(4,5-diphenyl-2-pyrimidyloxy)heptanoic acid] | 22 |
